Read-outs that look alike come from different tables or passages of the source.
Legend:
[1] = tested on: Acanthamoeba trophozoites; settings: 48 h of exposure; cited from earlier work
Acanthamoeba cysts = settings: 48 h of exposure; cited from earlier work
[2] = tested on: Acanthamoeba species cysts; experiment: PMN testing of Acanthamoeba species, xylitol with PHMB; assay type: cell-based; settings: xylitol 6% to 20%
Description: In PMN testing of a number of Acanthamoeba species, Xylitol in concentrations ranging from 6% to 20% has appeared to potentiate the acanthamoeba cysticidal effects of PHMB. In order for a disinfectant like PHMB to be cysticidal, it must gain access to the trophozoite internalized within the cyst. The most obvious route is via the ostioles or the pores in the double cell wall of the cyst that connect the outer exocyst and inner endocyst, thus allowing the internalized amoeba to communicate with its outside environment. It is believed that the mucopolysaccharides of the ostioles are altered by xylitol that enhance the binding by PHMB to allow […] penetration of the disinfectant.

[3] = limited human studies of topical xylitol; assay type: in vivo; settings: topical 4% to 7% xylitol, 2-5 times per day
S. mutans [4] = settings: in spite of the presence of glucose or sucrose; cited from earlier work
Streptococcus salivarius = settings: cited from earlier work
Streptococcus sanguis = settings: cited from earlier work
S. pneumoniae [5] = settings: glucose in the growth medium, cited from earlier work
[6] = tested on: beta-haemolytic streptococci; settings: 5% xylitol; cited from earlier work
H. influenzae [7] = settings: 5% xylitol; cited from earlier work
M. catarrhalis = settings: 5% xylitol; cited from earlier work
[8] = 8.4-10 g daily in five doses, 2-3 months follow-up, cited from earlier work
S. mutans [9] = settings: cited from earlier work
S. pneumoniae [10] = settings: cited from earlier work
H. influenzae [11] = settings: cited from earlier work
[12] = tested on: Streptococcus pneumoniae strains; settings: xylitol 0.5 to 5%; cited from earlier work
SARS-CoV-2 = settings: in vitro, within minutes of application, lasting for hours; cited from earlier work
[13] = in vivo; cited from earlier work

Molecule: Polyhexamethylene Biguanide [PHMB]
- minimum trophozoite amoebicidal concentration (MTAC) [1]: 1 g/mL
- minimum cysticidal concentration (MCC) (Acanthamoeba cysts): 3 g/mL

Molecule: OC[C@@H](O)[C@H](O)[C@@H](O)CO [Xylitol]
- effect on acanthamoeba cysticidal effects of PHMB [2]: potentiate
- corneal SPK [3]: reduce
- symptoms and inflammation (imaging of retro-palpebral and ocular surface mucosa, Meibomian gland obstruction) [3]: improve
- growth of S. mutans (S. mutans [4]): markedly reduced
- effect on growth of Streptococcus salivarius (Streptococcus salivarius): modest by comparison, but still significant
- effect on growth of Streptococcus sanguis (Streptococcus sanguis): modest by comparison, but still significant
- inhibition of pneumococcal growth (S. pneumoniae [5]; 1% xylitol): 39%
- inhibition of pneumococcal growth (S. pneumoniae [5]; 5% xylitol solution): 72%
- growth of beta-haemolytic streptococci [6]: more modestly impaired
- growth of H. influenza (H. influenzae [7]): minimally affected
- growth of M. catarrhalis (M. catarrhalis): minimally affected
- reduction of acute otitis media ([8]; chewing gum): approximately 40%
- reduction of acute otitis media ([8]; oral xylitol syrup): approximately 30%
- concentration capable of reducing adherence of S. mutans (S. mutans [9]): 6%
- concentration sufficient to reduce adherence of S. pneumoniae to epithelial cells (S. pneumoniae [10]): 5%
- concentration sufficient to reduce adherence of H. influenzae to epithelial cells (H. influenzae [11]): 5%
- adherence on epithelial cells [12]: did not diminish significantly
- reduction of virion concentrations (SARS-CoV-2): multiple log MAR reduction
- time until xylitol disappeared from the saliva [13]: ≤ 15 min

Source: US20240189254A1, “Xylitol Topical Ocular Solution” (GSX Pharma LLC, priority 2022, published 2024)
